Test results published in publication PMC5716981, “Inhibition of A2A Adenosine Receptor Signaling in Cancer Cells Proliferation by the Novel Antagonist TP455” (Frontiers in Pharmacology, 2017).
Where a name gives a salt, the structure may show the parent alone.

Tests used:
[1] = test system: A375 cells; assay: DELFIA cell proliferation (BrdU) in A375 cells; format: cell-based, human; conditions: for inhibition of CGS21680-induced cell proliferation by signalling inhibitor: 10 μM inhibitor 30 min pretreatment; for inhibition of CGS21680-induced cell proliferation by signalling inhibitor / antagonism of CGS21680-induced cell proliferation: 100 nM CGS21680, 48 h; for effect on cell proliferation when tested alone: 48 h
Description: (§1) Tumoral cell lines A375 (human skin malignant melanoma), A549 (adenocarcinomic human alveolar basal epithelial cells) and rat cell line MRMT-1 (rat breast carcinoma cells) were purchased from ATCC and were grown adherently at 37°C in 5% CO2/95% air. A375 and A549 were maintained in DMEM high glucose medium containing 10% fetal calf serum, penicillin (100 U/mL) and streptomycin ([…]) and MRMT-1 were grown in RPMI 1640 medium containing 10% fetal calf serum, penicillin (100 U/mL), streptomycin ([…]), and L-glutamine (2 mM). Adenosine receptor agonists and antagonists and inhibitors of kinases, were made up in dimethyl sulfoxide solution (DMSO) and then diluted in cell culture medium (0.1 max 0.2% of DMSO). An equal amount of DMSO was used in control cells (CTR).
(§2) The DELFIA assay was performed to determine cell proliferation according to the manufacturer’s protocol from PerkinElmer (Milan, Italy). The assay is a time-resolved fluoroimmunoassay based on the incorporation of BrdU into newly synthesized DNA strands of proliferating cells cultured in microliter plates. Incorporated BrdU is detected using a europium labeled monoclonal antibody and the fluorescence measured is proportional to the DNA synthesis in the cell population of each well. A375, A549, and MRMT-1 cells were cultured over night at 1000 cells/well in a 96-well plate (at a final volume of 100 μl per well), agonists and antagonists were added and the cells were incubated for 30′ before addition of the BrdU-Labeling solution 10 μl/well. The cells were then cultured for 24, 48, or 72 h. At the end of the incubation period, cells were fixed (fix solution 100 μl/well), added with 100 μl/well of Anti-BrdU-Eu (0.5 μg/ml) and incubated for 120 min at room temperature. After four washes, 200 μl of DELFIA Inducer were added at room temperature for 15 min and the Eu-fluorescence was detected through an Ensight Perkin Elmer-multimode plate reader (Perkin Elmer, Milan, Italy). Two kinds of controls were performed: the blank where no cells were added to the well but only culture medium and the background where no BrdU was added to the wells.

[2] = test system: MRMT-1 cells; assay: DELFIA cell proliferation (BrdU) in MRMT-1 cells; format: cell-based, rat; conditions: for inhibition of CGS21680-induced cell proliferation by signalling inhibitor: 10 μM inhibitor 30 min pretreatment; for inhibition of CGS21680-induced cell proliferation by signalling inhibitor / antagonism of CGS21680-induced cell proliferation: 100 nM CGS21680, 48 h; for effect on cell proliferation when tested alone: 48 h
Description: as §1, §2

[3] = test system: A549 cells; assay: DELFIA cell proliferation (BrdU) in A549 cells; format: cell-based, human; conditions: for inhibition of CGS21680-induced cell proliferation by signalling inhibitor: 10 μM inhibitor 30 min pretreatment; for inhibition of CGS21680-induced cell proliferation by signalling inhibitor / antagonism of CGS21680-induced cell proliferation: 100 nM CGS21680, 24 h; for effect on cell proliferation: 100 nM
Description: as §1, §2

[4] = test system: pERK1/2; assay: AlphaScreen SureFire pERK1/2 assay in MRMT-1, A375 and A549 cells; format: cell-based, human and rat; conditions: for antagonism of CGS21680-induced ERK1/2 phosphorylation: 100 nM CGS21680 5 min; for inhibition of CGS21680-mediated ERK1/2 phosphorylation: 10 μM inhibitor, 100 nM CGS 21680, MRMT-1, A375 and A549 cells
Description: (§3) AlphaScreen SureFire phospho(p)ERK1/2(Thr202/Tyr204), pJNK1/3(pThr183/Tyr185), and p-AKT1/2/3 (pThr308) assay kits (Perkin Elmer, Milan, Italy) were utilized. Upon kinase phosphorylation and excitation at 680 nm, fluorescent signals at 615 nm are emitted. Cells were seeded in 100 μl culture medium into 96-well plates (30,000/well), and incubated at 37°C for 24 h. Cells were pretreated with various inhibitors and TP455 for 30 min. Then, receptors were maximally stimulated using 100 nM CGS 21680 and incubated for 5 min (ERK1/2, JNK1/2-MAPK) or 30 min (AKT) at 37°C. After agonist removal, lysis buffer was added, then donor and acceptor beads linked to specific anti-p-kinase- and anti-kinase-antibodies were dispensed, according to manufacturer instructions. Finally, fluorescent signals were detected through an Ensight Perkin Elmer-multimode plate reader (Perkin Elmer, Milan, Italy). Data were normalized to fold activation above basal p-kinase levels (=100). For inhibitor graphs, raw data were transformed into percentages relative to controls (basal level = 100%) in order to merge data from several experiments.

[5] = test system: pJNK1/2; assay: AlphaScreen SureFire pJNK1/2 assay in MRMT-1, A375 and A549 cells; format: cell-based, human and rat; conditions: for antagonism of CGS21680-induced JNK1/2 phosphorylation: 100 nM CGS21680 5 min; for inhibition of CGS21680-mediated JNK1/2 phosphorylation: 10 μM inhibitor, 100 nM CGS 21680, MRMT-1, A375 and A549 cells
Description: as §3

[6] = test system: pAKT; assay: AlphaScreen SureFire pAKT assay in MRMT-1, A375 and A549 cells; format: cell-based, human and rat; conditions: for antagonism of CGS21680-induced AKT phosphorylation: 100 nM CGS21680 10 min; for inhibition of CGS21680-mediated AKT phosphorylation: 10 μM inhibitor, 100 nM CGS 21680, MRMT-1, A375 and A549 cells
Description: as §3, with “Then, receptors were maximally stimulated using 100 nM CGS 21680 and incubated for 5 min (ERK1/2, JNK1/2-MAPK) or 30 min (AKT) at 37°C.” left out

[7] = target: A2AARs (Rattus norvegicus, UniProt P30543); assay: biochemical
Description: (§4) For membrane preparation the culture medium was removed. […] The cell suspension was homogenized with Polytron and the homogenate was spun for 10 min at 1000 g. The supernatant was then centrifuged for 30 min at 100,000g. The membrane pellet was resuspended in 50 mM Tris HCl buffer pH 7.4, 10 mM MgCl2. […] Then the suspension was frozen at -80°C.
(§5) At the end of the incubation, bound and free radioactivity were separated by filtering, in a Brandel cell harvester, the assay mixture through Whatman GF/B glass-fiber filters. The filter bound radioactivity was counted in a liquid Scintillation Counter Tri Carb Packard 2500 TR (Perkin-Elmer Life and Analytical Sciences, Boston, MA, United States).
(§6) LIGAND was also used to determine inhibitory binding constant (Ki) values from the competition binding experiments. All values in the figures and text are expressed as mean ± standard error (SE) of three independent experiments.

[8] = target: T1, A2AARs (Homo sapiens, UniProt P29274); assay: [3H]ZM241385 competition binding in A375 melanoma membranes
Description: as §4, §5, §6

[9] = target: T1, A2AARs; assay: [3H]ZM241385 competition binding in A549 lung carcinoma membranes
Description: as §4, §5, §6

[10] = 100 nM, 0-60 min, MRMT-1, A375 and A549 cells
[11] = 10 nM antagonist 30 min pretreatment, MRMT-1, A375 and A549 cells
[12] = 100 nM antagonist 30 min pretreatment
[13] = 100 nM antagonist 30 min pretreatment, MRMT-1, A375 and A549 cells

A2AARs (Rattus norvegicus, UniProt P30543), sequence (P30543 whole entry): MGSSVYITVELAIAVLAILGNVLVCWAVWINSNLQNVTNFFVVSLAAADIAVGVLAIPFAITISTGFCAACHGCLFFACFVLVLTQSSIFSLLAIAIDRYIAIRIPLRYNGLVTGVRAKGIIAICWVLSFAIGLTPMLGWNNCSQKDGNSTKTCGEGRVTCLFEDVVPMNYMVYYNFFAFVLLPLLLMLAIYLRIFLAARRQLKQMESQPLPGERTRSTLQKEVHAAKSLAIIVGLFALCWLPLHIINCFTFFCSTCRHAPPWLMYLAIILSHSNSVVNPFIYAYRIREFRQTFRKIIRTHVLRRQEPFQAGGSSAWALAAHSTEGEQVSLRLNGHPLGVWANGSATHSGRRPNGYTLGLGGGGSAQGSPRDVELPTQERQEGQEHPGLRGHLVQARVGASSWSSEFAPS
T1 sequence (P29274 whole entry): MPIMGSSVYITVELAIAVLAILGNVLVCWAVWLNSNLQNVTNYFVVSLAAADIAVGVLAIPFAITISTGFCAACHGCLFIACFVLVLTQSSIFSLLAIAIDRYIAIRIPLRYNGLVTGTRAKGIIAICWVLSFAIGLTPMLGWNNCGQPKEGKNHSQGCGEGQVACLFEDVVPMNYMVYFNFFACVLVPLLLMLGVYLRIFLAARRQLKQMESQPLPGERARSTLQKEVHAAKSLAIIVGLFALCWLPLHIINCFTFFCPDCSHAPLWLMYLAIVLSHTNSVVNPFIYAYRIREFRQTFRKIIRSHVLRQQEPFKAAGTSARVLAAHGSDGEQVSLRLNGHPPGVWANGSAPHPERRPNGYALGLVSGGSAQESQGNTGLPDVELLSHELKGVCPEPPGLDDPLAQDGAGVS

Nc1ncnc2c1ncn2C1CCCO1 (stereo not shown) [SQ22,536]
inhibition of CGS21680-induced cell proliferation by signalling inhibitor [1]: did not block the agonist effect
inhibition of CGS21680-induced cell proliferation by signalling inhibitor [2]: did not block the agonist effect
inhibition of CGS21680-induced cell proliferation by signalling inhibitor [3]: did not block the agonist effect

CCCCCCCCCCCCCCCCCCOC[C@H](COP(=O)(O)O[C@H]1[C@H](O)[C@@H](O)[C@H](O)C[C@H]1OC)OC [SH5, D-3-Deoxy-2-O-methyl-myo-inositol 1-[(R)-2-methoxy-3-(octadecyloxy)propyl hydrogen phosphate]]
inhibition of CGS21680-induced cell proliferation by signalling inhibitor [1]: strongly reduced
inhibition of CGS21680-induced cell proliferation by signalling inhibitor [2]: strongly reduced
inhibition of CGS21680-induced cell proliferation by signalling inhibitor [3]: strongly reduced

CCNC(=O)[C@H]1O[C@@H](n2cnc3c(N)nc(NCCc4ccc(CCC(=O)O)cc4)nc32)[C@H](O)[C@@H]1O [CGS21680, 2-p-(2-Carboxyethyl)phenethylamino-5′-N-ethylcarboxamido-adenosine hydrochloride hydrate]
effect on cell proliferation ([1]; 100 nM, only at 48 h): stimulatory effect of cell proliferation
ERK1/2 phosphorylation time course [4, 10]: reached a maximal effect after 5 min
JNK1/2 phosphorylation time course [5, 10]: reached a maximal effect after 5 min
effect on cell proliferation ([2]; 10 nM, 48 and 72 h): raised cell vitality
effect on cell proliferation ([2]; 100 nM, 24, 48 and 72 h): significant stimulation
AKT phosphorylation time course [6, 10]: started to increase after 10 min
effect on cell proliferation ([3]; 48 and 72 h): not more present
effect on cell proliferation ([3]; 24 h): slightly increased cell proliferation

Oc1ccc(-c2nc(-c3ccc(F)cc3)c(-c3ccncc3)[nH]2)cc1 [SB202190, 4-(4-Fluorophenyl)-2-(4-hydroxyphenyl)-5-(4-pyridyl)-1H-imidazole]
inhibition of CGS21680-induced cell proliferation by signalling inhibitor [1]: did not
inhibition of CGS21680-induced cell proliferation by signalling inhibitor [2]: did not
inhibition of CGS21680-induced cell proliferation by signalling inhibitor [3]: did not

Nc1nc2ccc(Cl)cc2c2nc(-c3ccco3)nn12 [CGS15943]
Ki [7]: 2150 pM

N#CC(=C(/N)Sc1ccccc1N)/C(C#N)=C(/N)Sc1ccccc1N [U0126]
inhibition of CGS21680-induced cell proliferation by signalling inhibitor [1]: strongly reduced
inhibition of CGS21680-induced cell proliferation by signalling inhibitor [2]: strongly reduced
inhibition of CGS21680-induced cell proliferation by signalling inhibitor [3]: strongly reduced

COc1ccccc1CNc1nc(N)c2nc(-c3ccco3)sc2n1 [TP455, 2-(2-furanyl)-N^5-(2-methoxybenzyl)[1,3]thiazolo[5,4-d]pyrimidine-5,7-diammine]
effect on cell proliferation when tested alone ([1]; 10 nM alone): did not alter cell proliferation
antagonism of CGS21680-induced cell proliferation ([1]; 10 nM antagonist): antagonized
antagonism of CGS21680-induced ERK1/2 phosphorylation [4, 11]: potently inhibited
antagonism of CGS21680-induced JNK1/2 phosphorylation [5, 11]: potently inhibited
effect on cell proliferation when tested alone ([2]; 10 nM alone): did not alter cell proliferation
antagonism of CGS21680-induced cell proliferation ([2]; 10 nM antagonist): antagonized
Ki [8]: 5.8 pM
antagonism of CGS21680-induced AKT phosphorylation [6, 11]: potently inhibited
Ki [7]: 6.1 pM
effect on cell proliferation when tested alone ([3]; 10 nM alone, 24 h): did not alter cell proliferation
antagonism of CGS21680-induced cell proliferation ([3]; 10 nM antagonist): antagonized
Ki [9]: 5.3 pM

Oc1c2ccccc2c2c3c(cccc13)N=N2 [SP600125, 1,9-Pyrazoloanthrone]
inhibition of CGS21680-induced cell proliferation by signalling inhibitor [1]: strongly reduced
inhibition of CGS21680-induced cell proliferation by signalling inhibitor [2]: strongly reduced
inhibition of CGS21680-induced cell proliferation by signalling inhibitor [3]: strongly reduced

CC(=O)c1c(O)c(C)c(O)c(Cc2c(O)c3c(c(C(=O)C=Cc4ccccc4)c2O)OC(C)(C)C=C3)c1O [rottlerin, 1-[6-[(3-Acetyl-2,4,6-trihydroxy-5-methylphenyl)methyl]-5,7-dihydroxy-2,2-dimethyl-2H-1-benzopyran-8-yl]-3-phenyl-2-propen-1-one]
inhibition of CGS21680-induced cell proliferation by signalling inhibitor [1]: able to antagonize the stimulatory effect
inhibition of CGS21680-mediated ERK1/2 phosphorylation [4]: strongly reduced
inhibition of CGS21680-mediated JNK1/2 phosphorylation [5]: strongly reduced
inhibition of CGS21680-induced cell proliferation by signalling inhibitor [2]: able to antagonize the stimulatory effect
inhibition of CGS21680-mediated AKT phosphorylation [6]: strongly reduced
inhibition of CGS21680-induced cell proliferation by signalling inhibitor [3]: able to antagonize the stimulatory effect

Nc1nc(NCCc2ccc(O)cc2)nc2nc(-c3ccco3)nn12 [ZM241385, 4-(2-[7-Amino-2-(2-furyl) [1,2,4]triazolo[2,3-a][1,3,5]triazin-5-ylamino]ethyl)phenol]
effect on cell proliferation when tested alone ([1]; 100 nM alone): did not alter cell proliferation
antagonism of CGS21680-induced cell proliferation [1, 12]: completely block the agonist effect
antagonism of CGS21680-induced ERK1/2 phosphorylation [4, 13]: completely reverted
antagonism of CGS21680-induced JNK1/2 phosphorylation [5, 13]: completely reverted
effect on cell proliferation when tested alone ([2]; 100 nM alone): did not alter cell proliferation
antagonism of CGS21680-induced cell proliferation [2, 12]: completely block the agonist effect
antagonism of CGS21680-induced AKT phosphorylation [6, 13]: completely reverted
effect on cell proliferation when tested alone ([3]; 100 nM alone, 24 h): did not alter cell proliferation
antagonism of CGS21680-induced cell proliferation [3, 12]: completely block the agonist effect

COc1ccc2c(c1)CC[C@@H]1[C@@H]2CC[C@]2(C)[C@@H](NCCCCCCN3C(=O)C=CC3=O)CC[C@@H]12 [U73122, 1-[6-[[(17β)-3-Methoxyestra-1,3,5(10)-trien-17-yl]amino]hexyl]-1H-pyrrole-2,5-dione]
inhibition of CGS21680-induced cell proliferation by signalling inhibitor [1]: able to antagonize the stimulatory effect
inhibition of CGS21680-mediated ERK1/2 phosphorylation [4]: strongly reduced
inhibition of CGS21680-mediated JNK1/2 phosphorylation [5]: strongly reduced
inhibition of CGS21680-induced cell proliferation by signalling inhibitor [2]: able to antagonize the stimulatory effect
inhibition of CGS21680-mediated AKT phosphorylation [6]: strongly reduced
inhibition of CGS21680-induced cell proliferation by signalling inhibitor [3]: able to antagonize the stimulatory effect

Nc1nc2c(cnn2CCc2ccccc2)c2nc(-c3ccco3)nn12 [SCH58261]
Ki [7]: 3260 pM
